Assay [1] has as its target Glycogen synthase kinase-3 beta (Homo sapiens, UniProt P49841).
The target in assay [2] is T1, Structural maintenance of chromosomes protein 1A (Homo sapiens, UniProt Q14683).
T1 sequence (Q14683 whole entry): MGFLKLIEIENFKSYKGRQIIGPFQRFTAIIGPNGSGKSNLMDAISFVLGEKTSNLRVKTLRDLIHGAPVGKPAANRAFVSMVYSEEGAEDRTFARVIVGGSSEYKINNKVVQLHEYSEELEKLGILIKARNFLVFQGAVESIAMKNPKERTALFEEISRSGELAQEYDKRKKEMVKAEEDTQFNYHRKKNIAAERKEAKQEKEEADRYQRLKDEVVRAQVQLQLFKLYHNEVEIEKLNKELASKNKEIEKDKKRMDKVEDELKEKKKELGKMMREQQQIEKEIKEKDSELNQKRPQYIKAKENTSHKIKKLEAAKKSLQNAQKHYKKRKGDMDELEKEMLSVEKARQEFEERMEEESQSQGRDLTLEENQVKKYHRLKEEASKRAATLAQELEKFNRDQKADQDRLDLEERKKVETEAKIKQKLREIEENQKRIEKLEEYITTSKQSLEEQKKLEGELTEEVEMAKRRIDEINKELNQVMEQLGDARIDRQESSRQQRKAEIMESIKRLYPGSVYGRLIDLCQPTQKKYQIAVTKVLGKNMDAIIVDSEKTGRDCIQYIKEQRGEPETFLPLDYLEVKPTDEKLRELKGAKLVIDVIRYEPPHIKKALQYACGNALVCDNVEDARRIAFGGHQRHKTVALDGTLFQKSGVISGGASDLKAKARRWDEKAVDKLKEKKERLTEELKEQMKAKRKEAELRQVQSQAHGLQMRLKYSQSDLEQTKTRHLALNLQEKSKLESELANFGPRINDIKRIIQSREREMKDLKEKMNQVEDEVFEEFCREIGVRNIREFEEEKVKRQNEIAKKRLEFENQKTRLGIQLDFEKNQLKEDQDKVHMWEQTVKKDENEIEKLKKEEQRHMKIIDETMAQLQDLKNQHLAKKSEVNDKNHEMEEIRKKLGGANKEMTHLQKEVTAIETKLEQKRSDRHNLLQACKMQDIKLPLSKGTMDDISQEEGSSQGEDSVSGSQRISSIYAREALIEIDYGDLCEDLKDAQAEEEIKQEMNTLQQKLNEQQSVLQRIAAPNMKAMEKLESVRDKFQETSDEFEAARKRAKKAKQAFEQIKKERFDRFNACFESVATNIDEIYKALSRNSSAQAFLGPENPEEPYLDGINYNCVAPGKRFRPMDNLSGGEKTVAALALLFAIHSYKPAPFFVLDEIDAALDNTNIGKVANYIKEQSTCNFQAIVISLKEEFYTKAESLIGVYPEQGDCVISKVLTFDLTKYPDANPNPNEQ

Assay [3] addresses T2, Serine/threonine-protein kinase A-Raf (Homo sapiens, UniProt P10398).
T2 sequence (P10398 whole entry): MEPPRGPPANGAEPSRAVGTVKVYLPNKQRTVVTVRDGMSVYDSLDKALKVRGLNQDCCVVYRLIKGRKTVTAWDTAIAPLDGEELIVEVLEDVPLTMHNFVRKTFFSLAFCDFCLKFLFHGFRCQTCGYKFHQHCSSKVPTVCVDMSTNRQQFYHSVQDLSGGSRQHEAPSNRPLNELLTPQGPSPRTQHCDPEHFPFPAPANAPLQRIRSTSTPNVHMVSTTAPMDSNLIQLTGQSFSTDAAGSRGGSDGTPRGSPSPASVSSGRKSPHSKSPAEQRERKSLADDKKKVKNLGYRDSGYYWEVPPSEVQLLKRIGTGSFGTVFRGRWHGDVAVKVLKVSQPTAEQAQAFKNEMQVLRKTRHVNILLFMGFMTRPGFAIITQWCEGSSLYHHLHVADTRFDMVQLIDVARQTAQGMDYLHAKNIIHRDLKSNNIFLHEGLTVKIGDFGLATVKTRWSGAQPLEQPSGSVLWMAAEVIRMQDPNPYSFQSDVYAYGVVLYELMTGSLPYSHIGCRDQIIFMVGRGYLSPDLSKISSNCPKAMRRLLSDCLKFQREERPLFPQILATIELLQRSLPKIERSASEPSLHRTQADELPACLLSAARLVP

Assay [4] addresses Atypical kinase COQ8A, mitochondrial (Homo sapiens, UniProt Q8NI60).
The target in the next assay is T3, Heme oxygenase 2 (Homo sapiens, UniProt P30519).
T3 sequence (P30519 whole entry): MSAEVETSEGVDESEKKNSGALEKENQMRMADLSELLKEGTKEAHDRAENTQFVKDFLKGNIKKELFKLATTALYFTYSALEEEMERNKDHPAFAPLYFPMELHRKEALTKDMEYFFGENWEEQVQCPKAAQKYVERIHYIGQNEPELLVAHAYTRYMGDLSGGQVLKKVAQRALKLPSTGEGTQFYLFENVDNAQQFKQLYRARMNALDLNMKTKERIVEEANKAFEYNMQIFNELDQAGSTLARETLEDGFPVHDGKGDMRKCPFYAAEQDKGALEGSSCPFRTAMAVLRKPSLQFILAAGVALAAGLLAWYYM

The next assay concerns the target Activated CDC42 kinase 1 (Homo sapiens, UniProt Q07912).
Assay [5] deals with T4, Delta(24)-sterol reductase (Homo sapiens, UniProt Q15392).
T4 sequence (Q15392 whole entry): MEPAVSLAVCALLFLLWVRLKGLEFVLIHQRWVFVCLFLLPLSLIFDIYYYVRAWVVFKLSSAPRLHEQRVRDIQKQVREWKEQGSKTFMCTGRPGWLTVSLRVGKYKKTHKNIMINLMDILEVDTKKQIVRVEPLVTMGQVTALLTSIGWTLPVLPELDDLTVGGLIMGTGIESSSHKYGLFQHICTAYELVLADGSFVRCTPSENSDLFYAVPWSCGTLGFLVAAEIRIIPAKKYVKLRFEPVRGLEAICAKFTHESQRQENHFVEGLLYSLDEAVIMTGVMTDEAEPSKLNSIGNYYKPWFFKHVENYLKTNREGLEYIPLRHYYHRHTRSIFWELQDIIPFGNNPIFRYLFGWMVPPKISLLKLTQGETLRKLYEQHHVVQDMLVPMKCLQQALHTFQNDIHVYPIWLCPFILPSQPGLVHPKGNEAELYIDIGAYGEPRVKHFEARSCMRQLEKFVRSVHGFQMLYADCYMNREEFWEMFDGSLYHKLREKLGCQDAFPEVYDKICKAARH

Active and inactive are the calls of the source.

13 compounds from ChEMBL document CHEMBL3991601, “The target landscape of clinical kinase drugs” (Science, 2017) can be followed below.
Also: in the data inactive means no Kd found up to 30 µM.

Chain of Atypical kinase COQ8A, mitochondrial (Q8NI60 whole entry): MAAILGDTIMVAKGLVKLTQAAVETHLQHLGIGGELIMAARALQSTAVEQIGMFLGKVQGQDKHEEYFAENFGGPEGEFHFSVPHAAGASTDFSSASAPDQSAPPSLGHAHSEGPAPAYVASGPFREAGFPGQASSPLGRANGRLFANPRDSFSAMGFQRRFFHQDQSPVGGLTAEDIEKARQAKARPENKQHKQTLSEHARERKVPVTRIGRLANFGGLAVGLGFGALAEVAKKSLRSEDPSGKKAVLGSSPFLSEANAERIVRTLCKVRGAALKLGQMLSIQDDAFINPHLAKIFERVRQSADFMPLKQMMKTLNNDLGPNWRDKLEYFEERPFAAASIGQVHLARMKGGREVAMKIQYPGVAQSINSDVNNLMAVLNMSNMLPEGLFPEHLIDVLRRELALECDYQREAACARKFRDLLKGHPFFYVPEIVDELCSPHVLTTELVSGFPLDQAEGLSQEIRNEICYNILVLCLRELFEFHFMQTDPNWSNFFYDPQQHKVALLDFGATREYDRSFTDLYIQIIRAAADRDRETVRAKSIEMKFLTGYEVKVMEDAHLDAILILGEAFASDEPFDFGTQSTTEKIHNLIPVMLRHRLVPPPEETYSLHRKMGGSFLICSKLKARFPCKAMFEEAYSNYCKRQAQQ
Chain of Glycogen synthase kinase-3 beta (P49841 whole entry): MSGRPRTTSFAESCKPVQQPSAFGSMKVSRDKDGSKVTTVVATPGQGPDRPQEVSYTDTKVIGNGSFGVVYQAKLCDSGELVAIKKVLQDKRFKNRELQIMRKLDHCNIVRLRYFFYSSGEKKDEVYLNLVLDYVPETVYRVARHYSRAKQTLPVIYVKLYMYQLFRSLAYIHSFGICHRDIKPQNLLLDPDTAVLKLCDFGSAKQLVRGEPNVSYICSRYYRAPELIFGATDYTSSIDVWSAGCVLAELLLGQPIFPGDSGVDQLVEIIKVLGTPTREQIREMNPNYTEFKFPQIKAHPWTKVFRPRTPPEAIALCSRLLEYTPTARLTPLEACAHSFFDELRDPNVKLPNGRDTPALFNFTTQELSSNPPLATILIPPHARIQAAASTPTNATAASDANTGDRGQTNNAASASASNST
Chain of Activated CDC42 kinase 1 (Q07912 whole entry): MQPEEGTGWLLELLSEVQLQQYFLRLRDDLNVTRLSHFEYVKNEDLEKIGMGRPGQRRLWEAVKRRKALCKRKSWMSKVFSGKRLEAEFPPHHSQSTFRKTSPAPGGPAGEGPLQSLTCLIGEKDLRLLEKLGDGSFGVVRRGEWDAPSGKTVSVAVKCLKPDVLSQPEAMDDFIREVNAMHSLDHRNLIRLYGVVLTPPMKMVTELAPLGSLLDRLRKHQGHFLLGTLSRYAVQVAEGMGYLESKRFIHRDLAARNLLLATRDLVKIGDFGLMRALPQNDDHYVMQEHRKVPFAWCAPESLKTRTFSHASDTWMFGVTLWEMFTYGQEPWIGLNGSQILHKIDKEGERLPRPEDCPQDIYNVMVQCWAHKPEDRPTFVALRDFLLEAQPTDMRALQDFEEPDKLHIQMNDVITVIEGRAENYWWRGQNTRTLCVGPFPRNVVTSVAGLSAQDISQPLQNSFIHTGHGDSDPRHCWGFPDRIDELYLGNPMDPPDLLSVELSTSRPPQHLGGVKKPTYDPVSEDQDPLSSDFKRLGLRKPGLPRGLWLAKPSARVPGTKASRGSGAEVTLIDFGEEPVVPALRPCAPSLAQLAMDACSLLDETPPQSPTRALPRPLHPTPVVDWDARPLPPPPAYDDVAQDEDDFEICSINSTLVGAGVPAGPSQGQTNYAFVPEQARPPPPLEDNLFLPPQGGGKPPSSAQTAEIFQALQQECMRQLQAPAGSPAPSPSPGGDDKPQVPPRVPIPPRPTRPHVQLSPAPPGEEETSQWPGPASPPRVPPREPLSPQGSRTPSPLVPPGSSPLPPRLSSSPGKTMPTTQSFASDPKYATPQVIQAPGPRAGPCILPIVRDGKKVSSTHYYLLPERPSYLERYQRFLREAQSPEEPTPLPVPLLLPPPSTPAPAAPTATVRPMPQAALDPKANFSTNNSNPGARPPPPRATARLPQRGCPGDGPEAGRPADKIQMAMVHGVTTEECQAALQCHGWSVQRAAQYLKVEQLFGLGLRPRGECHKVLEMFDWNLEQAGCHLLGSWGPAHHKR

Consider `FC(F)(F)c1ccc(/C=C/c2nc(COc3ccc(CCCCn4ccnn4)cc3)co2)cc1` [MUBRITINIB], for which the Kd (in assay [1]; in assay [2]; in assay [3]; in assay [4]; on Heme oxygenase 2; on Activated CDC42 kinase 1) was > 30 µM (inactive) each time. Moreover, the Kd (commonly the free concentration of one partner at which half of the binding sites on the other are occupied at equilibrium, for simple one-to-one binding) in assay [5] was > 30 µM (inactive).

For `COc1ncc(-c2ccc3nccc(-c4ccnnc4)c3c2)cc1NS(=O)(=O)c1ccc(F)cc1F` [OMIPALISIB], the Kd (in assay [1]; in assay [2]; in assay [3]; in assay [4]; at Heme oxygenase 2; at Activated CDC42 kinase 1) was > 30 µM (inactive) in each case. Moreover, the Kd in assay [5] is > 30 µM (inactive).

For `CCOc1cc2ncc(C#N)c(Nc3ccc(F)c(Cl)c3)c2cc1NC(=O)/C=C/CN(C)C` [PELITINIB], the Kd (in assay [1]; in assay [2]; in assay [3]; in assay [4]; at Heme oxygenase 2; on Activated CDC42 kinase 1) was > 30 µM (inactive) each time. For the same compound, the Kd in assay [5] is > 30 µM (inactive).

Regarding `CCCCCCCCCCCCCCCCCCOP(=O)([O-])OC1CC[N+](C)(C)CC1` [PERIFOSINE], the Kd (in assay [1]; in assay [2]; in assay [3]; in assay [4]; at Heme oxygenase 2; on Activated CDC42 kinase 1) was > 30 µM (inactive) throughout. The Kd in assay [5] is > 30 µM (inactive).

As for `Cc1nc(Nc2n[nH]c3c2CN(C(=O)N[C@H](CN(C)C)c2ccccc2)C3(C)C)c2sccc2n1` [PF-03758309], the Kd in assay [1] is 0.667 µM (active); in assay [2] it was > 30 µM (inactive); in assay [3] it was > 30 µM (inactive); in assay [4], > 30 µM (inactive); at Heme oxygenase 2 it was > 30 µM (inactive); on Activated CDC42 kinase 1, > 30 µM (inactive). For the same compound, in assay [5], the Kd is > 30 µM (inactive).

In the case of `Cc1cnc(NC(=O)Nc2cc(Br)c(C)cc2OC[C@@H]2CNCCO2)cn1` [RABUSERTIB], the Kd (in assay [1]; in assay [2]; in assay [3]; in assay [4]; at Heme oxygenase 2; on Activated CDC42 kinase 1) was > 30 µM (inactive) in each case. Besides, the Kd in assay [5] was > 30 µM (inactive).

Regarding `CNC(=O)c1cc(Oc2ccc(NC(=O)Nc3cc(C(C)(C)C)nn3-c3ccc4ncccc4c3)c(F)c2)ccn1` [REBASTINIB], the Kd was > 30 µM (inactive) in assay [1]; > 30 µM (inactive) in assay [2]; 33.7 µM (active) in assay [3]; > 30 µM (inactive) in assay [4]; > 30 µM (inactive) on Heme oxygenase 2; > 30 µM (inactive) at Activated CDC42 kinase 1. Besides, the Kd in assay [5] was > 30 µM (inactive).

For `CO[C@H]1C[C@@H]2CC[C@@H](C)[C@@](O)(O2)C(=O)C(=O)N2CCCC[C@H]2C(=O)O[C@H]([C@H](C)C[C@@H]2CC[C@@H](OP(C)(C)=O)[C@H](OC)C2)CC(=O)[C@H](C)/C=C(\C)[C@@H](O)[C@@H](OC)C(=O)[C@H](C)C[C@H](C)/C=C/C=C/C=C/1C` [RIDAFOROLIMUS], the Kd (in assay [1]; in assay [2]; in assay [3]; in assay [4]; at Heme oxygenase 2; on Activated CDC42 kinase 1) was > 30 µM (inactive) in each case. Besides, the Kd in assay [5] is > 30 µM (inactive).

On to `N#CC1(c2ccc(NC(=O)c3cccnc3NCc3ccncc3)cc2)CCCC1` [RIVOCERANIB], for which the Kd (in assay [1]; in assay [2]; in assay [3]; in assay [4]; at Heme oxygenase 2; at Activated CDC42 kinase 1) was > 30 µM (inactive) in each case. Further, the Kd in assay [5] was > 30 µM (inactive).

Consider `O=c1[nH]ccc2cc(OC3CCNCC3)ccc12` [SAR-407899 FREE BASE], for which the Kd (in assay [1]; in assay [2]; in assay [3]; in assay [4]; on Heme oxygenase 2; at Activated CDC42 kinase 1) was > 30 µM (inactive) in each case. For the same compound, the Kd in assay [5] was > 30 µM (inactive).

As for `CN1CCN(CCOc2cc(OC3CCOCC3)c3c(Nc4c(Cl)ccc5c4OCO5)ncnc3c2)CC1` [SARACATINIB], the Kd in assay [1] was > 30 µM (inactive); in assay [2], > 30 µM (inactive); in assay [3] it was > 30 µM (inactive); in assay [4], 0.275 µM (active); at Heme oxygenase 2, > 30 µM (inactive); at Activated CDC42 kinase 1 it was 4.65 µM (active). Further, the Kd in assay [5] is > 30 µM (inactive).

As for `CO[C@H]1C[C@@H]2CC[C@@H](C)[C@@](O)(O2)C(=O)C(=O)N2CCCC[C@H]2C(=O)O[C@H]([C@H](C)C[C@@H]2CC[C@@H](O)[C@H](OC)C2)CC(=O)[C@H](C)/C=C(\C)[C@@H](O)[C@@H](OC)C(=O)[C@H](C)C[C@H](C)/C=C/C=C/C=C/1C` [SIROLIMUS], the Kd (in assay [1]; in assay [2]; in assay [3]; in assay [4]; at Heme oxygenase 2; at Activated CDC42 kinase 1) was > 30 µM (inactive) each time. Further, the Kd in assay [5] was > 30 µM (inactive).

Take `CCS(=O)(=O)c1cccc(-c2cc(C(=O)NC3CCN(C)CC3)c(C)c3[nH]c4ncc(C)cc4c23)c1` [TAK-901]: the Kd in assay [1] is 6.17 µM (active); in assay [2], > 30 µM (inactive); in assay [3], > 30 µM (inactive); in assay [4], > 30 µM (inactive); at Heme oxygenase 2, > 30 µM (inactive); at Activated CDC42 kinase 1 it was 0.281 µM (active). In addition, the Kd in assay [5] is > 30 µM (inactive).
